Data: PubChem BioAssay (NCI)
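Each compound was tested at five concentrations against cells in 96-well plates for 48 hours. GI50: concentration for 50% inhibition of growth. TGI is the concentration that stops growth completely.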

Legend:
Assay in all cases: DTP human tumour cell line panel, 48 h
HCC-2998 colon = system: HCC-2998 colon
MALME-3M melanoma = system: MALME-3M melanoma
BT-549 breast = system: BT-549 breast
UACC-62 melanoma = system: UACC-62 melanoma
NCI-H460 lung = system: NCI-H460 lung
RPMI-8226 leukemia = system: RPMI-8226 leukemia
KM12 colon = system: KM12 colon
MCF7 breast = system: MCF7 breast

Row | SMILES | GI50 (HCC-2998 colon) | TGI (HCC-2998 colon) | GI50 (MALME-3M melanoma) | TGI (MALME-3M melanoma) | GI50 (BT-549 breast) | TGI (BT-549 breast) | GI50 (UACC-62 melanoma) | TGI (UACC-62 melanoma) | GI50 (NCI-H460 lung) | TGI (NCI-H460 lung) | GI50 (RPMI-8226 leukemia) | TGI (RPMI-8226 leukemia) | GI50 (KM12 colon) | TGI (KM12 colon) | GI50 (MCF7 breast) | TGI (MCF7 breast)
1 | CC(C)N(Cc1ccc(F)cc1)c1ccc(CO)c(Cl)c1 | 2.81 µM | 20 µM | 14.4 µM | 30.3 µM | 12.3 µM | 25.7 µM | 0.0664 µM | 0.4 µM | 0.144 µM | 10.7 µM | 1.46 µM | 20.1 µM | 10.9 µM | 23.4 µM | 0.181 µM | 13.2 µM
2 | COc1ccc(-c2c3c(N)c4c(nc3nc3c2c(C)nn3-c2ccccc2)CCCC4)cc1 | 3.51 µM | 12.7 µM |  |  | 17.2 µM | 33.8 µM | 13.7 µM | 27.9 µM | 3.28 µM | 11.3 µM | 1.92 µM | 4.32 µM | 3.16 µM | 10.8 µM | 2.57 µM | 8.88 µM
3 | N#C/C(=C\c1cc2ccc(N3CCC3)cc2oc1=O)C(=O)N(CC(=O)O)CC(=O)O | > 100 µM | > 100 µM | > 100 µM | > 100 µM | > 100 µM | > 100 µM | > 100 µM | > 100 µM | > 100 µM | > 100 µM | > 100 µM | > 100 µM | > 100 µM | > 100 µM | > 100 µM | > 100 µM
4 | COc1cc(-c2ncn(/C=C\c3nnco3)n2)cc(C(F)(F)F)c1 | 0.215 µM | 4.5 µM | 0.464 µM | > 100 µM | 0.125 µM | 14.3 µM | 0.354 µM | 13.8 µM | 0.0431 µM | > 100 µM | 0.102 µM | > 89.1 µM | 0.705 µM | > 39.3 µM | 0.179 µM | > 33.4 µM
5 | O=C1C(Nc2cccc(O)c2)=C(Sc2ccccc2)C(=O)N1Cc1ccccc1 |  |  | 1.74 µM | 9.97 µM | 11.2 µM | 43.5 µM | 5.3 µM | 18.9 µM | 11.3 µM | 29 µM | 1.36 µM | 4.07 µM | 14 µM | 28.8 µM | 6.87 µM | 22.8 µM
6 | COc1ccc2c(c1)C(=O)c1c-2c(=O)n(CCCN(C)C)c2cc(OC)c(OC)cc12 | 14.1 µM | 27.3 µM |  |  | 83.6 µM | > 100 µM | > 100 µM | > 100 µM | 0.273 µM | 11.4 µM | 8.14 µM | 42.3 µM | 5.73 µM | 19.8 µM | 0.141 µM | 15.3 µM
7 | Cc1ccc(-n2c(-c3cc4c([nH]c5ccccc54)c(-c4cccc(O)c4)n3)n[nH]c2=S)cc1 | 0.268 µM | 0.838 µM | 2.57 µM | 17.6 µM |  |  | 0.491 µM | 2.57 µM | 0.393 µM | 10.2 µM | 0.808 µM | 3.76 µM | 1.15 µM | 5.1 µM | 1.8 µM | 10.5 µM
8 | CCOC(=O)C(Cc1ccc(N(CCCl)CCCl)cc1)NC(=O)C(Cc1ccccc1)NC(C)=O (configuration not stated) |  | > 1 µM |  |  |  | > 0.798 µM |  | > 0.277 µM |  | > 0.553 µM |  | 0.211 µM |  | > 0.565 µM |  | 0.496 µM
9 | COC1=C(OC)C(=O)C(CCCCCCCCCCO)=C(C)C1=O | 16.3 µM | 33.5 µM | 7.47 µM | 21.8 µM | 12.7 µM | 25.9 µM | 7.57 µM | 21.4 µM | 14.8 µM | 34.9 µM | 4 µM | 29.5 µM | 15.1 µM | 58.1 µM | 1.96 µM | 4.45 µM
10 | COc1ccc(S(=O)(=O)N2CCNCC2)cc1OC | > 100 µM | > 100 µM | > 100 µM | > 100 µM | > 100 µM | > 100 µM | > 100 µM | > 100 µM | > 100 µM | > 100 µM | > 100 µM | > 100 µM | > 100 µM | > 100 µM | > 100 µM | > 100 µM
11 | c1ccc2c(CNCCN3CCNCC3)c3ccccc3c(CNCCN3CCNCC3)c2c1 | 12.7 µM | 29.4 µM | 11.8 µM | 30.2 µM | 28.3 µM | 75.6 µM | 21.1 µM | 44 µM | 25 µM | 98.3 µM |  |  | 10.3 µM | 26.8 µM | 11.5 µM | 50.2 µM
12 | Cc1cc2c(c(=O)o1)C1=S(SC(c3ccccc3)=C1)S2 (configuration not stated) |  |  |  | 86.7 µM |  | > 100 µM |  | > 100 µM |  | > 100 µM |  | > 100 µM |  | > 100 µM |  | > 100 µM
13 | O=S(=O)(NCCCNc1cc(-c2cn(-c3ccccc3)nc2-c2cccc(O)c2)ccn1)c1ccc(F)cc1 | 2.2 µM | 4.52 µM | 2.56 µM | 8.91 µM | 2.28 µM | 7.78 µM | 2.92 µM | 12 µM | 3.64 µM | 13.9 µM | 2.23 µM | 7.63 µM | 3.24 µM | 11.7 µM | 3.26 µM | 12.4 µM
14 | N#Cc1c(NC(=O)c2ccccc2F)sc2c1CCCC2 | 13.4 µM | > 25 µM | > 25 µM | > 25 µM | > 20.3 µM | > 25 µM | 18.1 µM | > 25 µM | > 19.5 µM | > 25 µM | > 25 µM | > 25 µM | 5.12 µM | > 25 µM | > 19.5 µM | > 25 µM
15 | CC1=NNC(=S)NCCCN2CCN(CCCNC(=S)NN=C(C)C=NNC(=S)NCCCN3CCN(CCCNC(=S)NN=C1)CC3)CC2 |  | > 100 µM |  | > 100 µM |  | > 100 µM |  | > 100 µM |  |  |  | > 100 µM |  | > 100 µM |  | > 100 µM
16 | C=CC[N+]1(CC)CCN=C1CCCCCCCCCCCCCCCCC (configuration not stated) | 0.241 µM | 0.797 µM |  |  |  |  | 0.935 µM | 2.3 µM | 0.429 µM | 1.46 µM |  |  |  |  | 0.346 µM | 1.28 µM
17 | CC1CCN(CCOc2ccc(CNc3ccc4nc(CCC5CCCCC5)[nH]c4c3)cc2)CC1 | 1.42 µM | 2.85 µM | 1.71 µM | 3.17 µM | 1.52 µM | 2.91 µM | 1.9 µM | 3.36 µM | 1.72 µM | 3.34 µM | 1.38 µM | 3.35 µM | 1.77 µM | 3.51 µM | 1.73 µM | 3.8 µM
